Data from patent US20250032581A1, “COMPOSITIONS AND ARTICLES COMPRISING AN ADNF POLYPEPTIDE” (RAMOT AT TEL-AVIV UNIVERSITY LTD., priority 2021, published 2025).

How the values were obtained:
Tyr mice = assay: Fecal microbiome real-time PCR; type: in vivo, mouse; conditions: WT mice
Description: Microbiome—Fecal samples were collected from 12.2±0.19-week-old mice. Samples were prepared and analyzed as previously described (57). Microbiome data was analyzed after applying the logarithmic transformation.

Tau, tubulin = assay: Polymerized vs. soluble tubulin assay; type: cell-based, mouse; conditions: zinc 400 μM, 4 h, peptide 10^−12M
Description: Polymerized vs. soluble tubulin assay—To quantify tubulin polymerization and Tau-MT association, a simple assay was performed as previously described. The cells grown to confluence in six-well plates were washed with MT buffer (80 mM PIPES pH 6.8, 1 mM MgCl^2, 2 mM EGTA, 5% Glycerol) and lysed at room temperature for 5 min through centrifugation (300 g), with 150 μl of MT buffer with 0.5% Triton X-100 to extract soluble (cytosolic) tubulin (S). The pelleted cells were rinsed once again with an equal volume of modified RIPA lysis buffer (50 mM Tris-HCL pH 7.4, 150 mM NaCl, 2 mM EGTA, 1% Triton X-100, 0. 1% SDS, 0.1% sodium Deoxycholate) to collect the polymerized (cytoskeletal) tubulin (P). The cytosolic and cytoskeletal fractions were each mixed with sample buffer and heated at 95° C. for 5 min. An equal volume of each fraction was analyzed by immunoblotting with Tau, tubulin and actin antibodies, and the results following ECL development were quantified by densitometry (GelQuant.NET software provided by biochemlabsolutions(dot)com).
It is known that in the presence of extracellular zinc NAP protects MT against degradation by promoting Tau binding to the MT shaft. Polymerized vs. soluble tubulin assay was effected to compare protective activities of NAP and SKIP against MT degradation and Tau-MT dissociation (FIGS. 11F-G). After treatments with zinc (400 μM, 4 h) with and without NAP or SKIP (10^−12M, 4 h) the cellular-tubulin pool was separated into polymerized and soluble tubulin fractions. The amount of Tau, tubulin, and actin was identified by immunoblotting (FIG. 11F), followed by densitometric quantification (FIG. 11G).

[1] = tested on: mice with the ASD-linked InsG3680 mutation (SHANK3); assay: Open field behavior in the SHANK3 mouse model; type: in vivo; conditions: intranasal NAP once daily, five days a week for a month
Description: To this end, mice with the ASD-linked InsG3680 mutation were used. Two behavioral assessments were performed on make mice: • 1) Open field behavior attesting to anxiety and depression (Open field behavioral assessment technology was previously described, e.g.); and • 2) Social recognition behavior, related to autistic traits (the social recognition test was previously described, e.g..
This surprising finding is of importance as there is a psychiatric illness and regression in individuals with Phelan-McDermid syndrome.

BTBR mouse = assay: Social recognition in the BTBR mouse; type: in vivo
[2] = adult patients; cited from earlier work

Q: For `CC[C@H](C)[C@H](NC(=O)[C@H](CO)NC(=O)[C@@H](NC(=O)[C@@H]1CCCN1C(=O)[C@H](C)NC(=O)[C@@H](N)CC(N)=O)C(C)C)C(=O)N1CCC[C@H]1C(=O)N[C@@H](CCC(N)=O)C(=O)O` [NAP, NAPVSIPQ], which “bacterial loads (EubV3, BIF, Lacto, Entero)” value (Tyr mice) is on record?
A: no effect on WT mice

Q: What about the “protection against Tau dissociation from MTs (soluble Tau ratio)” value (Tau, tubulin) of the same compound?
A: only NAP exhibited protection against Tau dissociation from MTs

Q: What about the “protection of polymerized tubulin against zinc” value (Tau, tubulin) of the same compound?
A: protected against zinc-induced decay

Q: And the “open field: cumulative duration in the center” value [1]?
A: significantly increased by NAP treatment

Q: What about the social recognition (BTBR mouse) of the same compound?
A: preference of the mouse, rather than the cup=object chamber

Q: What about the “efficacy in clinical studies” value [2] of the same compound?
A: enhancement of cognitive function and functional activities of daily living
